Data reported in US8466118B2, “Modulation of blood brain barrier protein expression” (Saint Louis University, priority 2007, dated 2013).
Oligonucleotides are written 5' to 3', each unit as a sugar letter and its base; * is a phosphorothioate linkage, no mark a phosphodiester; rarer units and linkages stand in square brackets, end groups in braces. Plain capitals give the bases only. d = 2'-deoxy (DNA)

Tests used:
LRP-1 [1] = molecular target: T1, LRP-1 (Mus musculus, UniProt Q91ZX7); assay: Recognition of a novel object after chronic icv infusion; assay type: in vivo; conditions: 2 wk icv infusion 100 ng/h
T1 construct: from tissue; host or cells: brain of living mice (iv, icv or chronic icv antisense)
T1 sequence (Q91ZX7 20-4545): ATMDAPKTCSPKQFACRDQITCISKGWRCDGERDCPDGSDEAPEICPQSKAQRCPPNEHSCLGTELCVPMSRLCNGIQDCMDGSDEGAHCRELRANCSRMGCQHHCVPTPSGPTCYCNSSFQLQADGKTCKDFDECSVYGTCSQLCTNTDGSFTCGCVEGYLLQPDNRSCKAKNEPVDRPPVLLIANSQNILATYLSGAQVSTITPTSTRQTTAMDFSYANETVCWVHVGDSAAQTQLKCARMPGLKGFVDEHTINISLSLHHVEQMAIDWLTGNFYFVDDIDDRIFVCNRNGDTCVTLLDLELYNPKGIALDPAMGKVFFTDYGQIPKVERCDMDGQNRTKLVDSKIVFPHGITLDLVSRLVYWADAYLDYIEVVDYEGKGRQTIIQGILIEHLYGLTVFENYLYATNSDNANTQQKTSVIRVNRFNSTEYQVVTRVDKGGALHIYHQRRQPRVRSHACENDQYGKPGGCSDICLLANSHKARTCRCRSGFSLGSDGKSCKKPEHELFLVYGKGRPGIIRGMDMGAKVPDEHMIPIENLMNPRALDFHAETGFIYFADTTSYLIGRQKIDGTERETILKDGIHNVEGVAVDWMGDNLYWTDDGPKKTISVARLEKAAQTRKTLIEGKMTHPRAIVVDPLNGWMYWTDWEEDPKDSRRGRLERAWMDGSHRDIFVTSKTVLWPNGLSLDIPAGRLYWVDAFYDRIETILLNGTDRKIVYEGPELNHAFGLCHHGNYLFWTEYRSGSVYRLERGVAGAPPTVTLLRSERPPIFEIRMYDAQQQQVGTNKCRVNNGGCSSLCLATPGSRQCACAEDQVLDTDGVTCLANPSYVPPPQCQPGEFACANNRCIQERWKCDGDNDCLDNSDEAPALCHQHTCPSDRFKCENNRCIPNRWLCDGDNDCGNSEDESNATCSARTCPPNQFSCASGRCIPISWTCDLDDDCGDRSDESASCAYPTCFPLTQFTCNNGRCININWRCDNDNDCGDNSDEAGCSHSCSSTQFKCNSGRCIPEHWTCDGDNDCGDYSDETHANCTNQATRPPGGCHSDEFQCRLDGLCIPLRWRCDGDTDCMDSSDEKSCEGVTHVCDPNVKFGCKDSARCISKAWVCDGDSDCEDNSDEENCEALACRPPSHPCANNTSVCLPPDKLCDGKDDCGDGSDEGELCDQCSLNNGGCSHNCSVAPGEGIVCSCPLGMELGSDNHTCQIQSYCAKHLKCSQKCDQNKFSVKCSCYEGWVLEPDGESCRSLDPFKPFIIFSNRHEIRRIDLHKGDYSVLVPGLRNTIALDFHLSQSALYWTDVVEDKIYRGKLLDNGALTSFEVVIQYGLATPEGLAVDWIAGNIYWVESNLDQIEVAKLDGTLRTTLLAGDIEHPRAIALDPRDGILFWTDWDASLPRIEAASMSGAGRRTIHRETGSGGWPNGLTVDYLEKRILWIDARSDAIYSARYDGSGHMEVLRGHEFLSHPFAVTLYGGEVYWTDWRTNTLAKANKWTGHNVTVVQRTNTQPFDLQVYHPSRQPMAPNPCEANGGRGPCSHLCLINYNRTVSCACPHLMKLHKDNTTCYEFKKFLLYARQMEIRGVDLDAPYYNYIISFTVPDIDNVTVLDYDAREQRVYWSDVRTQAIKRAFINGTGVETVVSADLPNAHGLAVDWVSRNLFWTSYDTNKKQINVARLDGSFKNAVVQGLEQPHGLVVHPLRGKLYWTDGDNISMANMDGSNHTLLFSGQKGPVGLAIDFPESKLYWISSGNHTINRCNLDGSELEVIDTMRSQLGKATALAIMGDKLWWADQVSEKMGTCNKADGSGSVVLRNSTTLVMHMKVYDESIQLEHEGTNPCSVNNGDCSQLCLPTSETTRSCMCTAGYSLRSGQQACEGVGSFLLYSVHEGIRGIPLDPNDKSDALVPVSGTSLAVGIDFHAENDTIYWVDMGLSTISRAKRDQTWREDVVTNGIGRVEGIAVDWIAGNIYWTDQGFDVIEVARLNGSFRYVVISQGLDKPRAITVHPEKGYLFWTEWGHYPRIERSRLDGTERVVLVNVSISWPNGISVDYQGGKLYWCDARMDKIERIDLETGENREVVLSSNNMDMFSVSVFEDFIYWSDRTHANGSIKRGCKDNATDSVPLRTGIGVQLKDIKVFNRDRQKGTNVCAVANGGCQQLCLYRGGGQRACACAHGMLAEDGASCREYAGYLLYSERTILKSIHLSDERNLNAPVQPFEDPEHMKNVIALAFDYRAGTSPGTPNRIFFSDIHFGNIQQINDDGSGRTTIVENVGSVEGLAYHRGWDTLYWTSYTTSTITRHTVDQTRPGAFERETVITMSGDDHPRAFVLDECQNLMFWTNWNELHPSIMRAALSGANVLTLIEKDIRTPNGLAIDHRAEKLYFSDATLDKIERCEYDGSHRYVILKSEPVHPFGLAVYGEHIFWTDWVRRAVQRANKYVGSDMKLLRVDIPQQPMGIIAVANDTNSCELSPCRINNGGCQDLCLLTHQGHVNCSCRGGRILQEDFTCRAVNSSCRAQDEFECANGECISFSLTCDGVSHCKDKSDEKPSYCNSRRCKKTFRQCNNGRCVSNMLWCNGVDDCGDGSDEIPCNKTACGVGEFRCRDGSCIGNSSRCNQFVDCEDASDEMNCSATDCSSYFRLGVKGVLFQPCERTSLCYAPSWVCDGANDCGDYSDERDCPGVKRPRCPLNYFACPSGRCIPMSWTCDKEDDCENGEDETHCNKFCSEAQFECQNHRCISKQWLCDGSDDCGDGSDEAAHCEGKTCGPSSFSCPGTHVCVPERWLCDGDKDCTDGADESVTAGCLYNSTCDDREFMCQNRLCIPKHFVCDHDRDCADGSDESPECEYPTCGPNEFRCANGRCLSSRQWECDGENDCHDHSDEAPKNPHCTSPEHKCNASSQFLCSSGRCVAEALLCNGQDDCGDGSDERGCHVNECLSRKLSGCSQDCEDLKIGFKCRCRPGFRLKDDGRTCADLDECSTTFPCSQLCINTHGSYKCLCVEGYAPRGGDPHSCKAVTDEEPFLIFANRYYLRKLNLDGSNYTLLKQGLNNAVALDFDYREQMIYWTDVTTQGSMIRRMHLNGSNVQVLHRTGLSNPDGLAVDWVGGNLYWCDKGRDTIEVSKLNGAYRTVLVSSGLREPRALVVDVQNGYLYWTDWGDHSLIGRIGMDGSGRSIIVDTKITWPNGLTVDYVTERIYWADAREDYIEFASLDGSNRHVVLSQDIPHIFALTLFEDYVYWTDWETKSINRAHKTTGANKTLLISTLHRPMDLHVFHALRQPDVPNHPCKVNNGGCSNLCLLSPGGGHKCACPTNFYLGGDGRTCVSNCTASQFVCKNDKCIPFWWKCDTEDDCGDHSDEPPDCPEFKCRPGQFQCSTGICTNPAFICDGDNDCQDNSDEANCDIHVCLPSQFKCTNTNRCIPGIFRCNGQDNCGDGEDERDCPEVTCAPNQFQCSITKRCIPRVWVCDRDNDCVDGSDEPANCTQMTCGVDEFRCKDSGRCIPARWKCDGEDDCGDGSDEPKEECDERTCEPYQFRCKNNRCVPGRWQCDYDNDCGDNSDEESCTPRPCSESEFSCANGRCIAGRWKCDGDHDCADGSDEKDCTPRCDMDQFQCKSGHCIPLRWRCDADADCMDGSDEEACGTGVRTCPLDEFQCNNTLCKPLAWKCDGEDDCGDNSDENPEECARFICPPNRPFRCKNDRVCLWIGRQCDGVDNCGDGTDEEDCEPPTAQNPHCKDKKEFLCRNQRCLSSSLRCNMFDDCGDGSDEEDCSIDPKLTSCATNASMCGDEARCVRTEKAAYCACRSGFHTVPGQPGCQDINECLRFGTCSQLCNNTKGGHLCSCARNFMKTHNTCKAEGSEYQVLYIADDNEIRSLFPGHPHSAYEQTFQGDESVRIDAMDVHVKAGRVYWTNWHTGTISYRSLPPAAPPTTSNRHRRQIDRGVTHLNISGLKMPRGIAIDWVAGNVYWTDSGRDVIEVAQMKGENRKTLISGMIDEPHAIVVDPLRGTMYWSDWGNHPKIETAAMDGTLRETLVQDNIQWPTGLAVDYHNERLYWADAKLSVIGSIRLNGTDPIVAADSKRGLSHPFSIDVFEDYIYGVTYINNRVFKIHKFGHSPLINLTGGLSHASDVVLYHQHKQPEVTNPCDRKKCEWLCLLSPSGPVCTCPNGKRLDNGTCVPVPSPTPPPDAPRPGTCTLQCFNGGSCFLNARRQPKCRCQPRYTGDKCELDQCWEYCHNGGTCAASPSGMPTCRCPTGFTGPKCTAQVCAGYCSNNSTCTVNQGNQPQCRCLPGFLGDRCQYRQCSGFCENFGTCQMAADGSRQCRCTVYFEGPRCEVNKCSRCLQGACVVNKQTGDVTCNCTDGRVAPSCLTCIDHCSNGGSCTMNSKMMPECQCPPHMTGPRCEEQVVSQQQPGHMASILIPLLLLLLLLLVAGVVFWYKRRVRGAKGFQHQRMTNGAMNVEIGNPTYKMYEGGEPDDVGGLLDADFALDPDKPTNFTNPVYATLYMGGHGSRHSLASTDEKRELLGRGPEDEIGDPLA
Method: Recognition of a novel object: This method has been described previously(Jaeger et al., 2002). Briefly, recognition memory for a novel object was assessed in cocktail and random antisense treated animals (100 ng/h two week infusion). Prior to testing, mice were habituated for three consecutive days to the testing apparatus (a 58×66×11 cm white, plastic box). During habituation, each mouse was allowed to freely explore the testing apparatus for 5 min. On the first day of training, mice were placed in the testing apparatus for 5 min and allowed to explore a pair of identical objects (Objects A and B; both were 7×6.3×5.1 cm). On the second day of training, one of the original objects was replaced with a new, or novel, object (Object C; 8.2×3.8×7.4 cm). Mice were placed in the testing apparatus for 5 min and the amount of time each mouse spent sniffing or touching the novel object was recorded by an observer. Results from this study were expressed as the percent of time spent investigating the novel object.

LRP-1 [2] = assay: Immunohistochemistry of LRP-1 in isolated mouse brain microvessels (MBMs); assay type: cell-based; conditions: 10 μg/mL, 24 h, buffer = 100%
Text: Isolation of mouse brain microvessels (MBMs): Mouse brain microvessels (MBMs) were isolated by a modification of a method of Gerhart et al (Brain Res Bull 21, 785-793, 1998). All glassware was pre-coated with phosphate buffered saline (PBS) supplemented with 1% BSA (1% BSA/PBS). This was done to minimize adhesion and to maximize recovery of microvessels. Briefly, ten to twelve cerebral cortices from adult male CD-1 mice were collected and the meninges removed. They were homogenized on ice in 5 mL of cold stock buffer (25 mM HEPES, 1% dextran and 1 envelope of Minimum Essential Medium (Invitrogen), pH 7.4). The homogenate was then filtered through a series of nylon mesh membranes (300 μm, then twice through 100 μm; Spectrum, Houston, Tex.), mixed with an equal volume of 40% dextran in stock buffer, and centrifuged at 3,000×g for 30 min at 4° C. […]
Immunohistochemistry of LRP-1 in isolated MBMs: Isolated MBMs were treated with either incubation buffer, random antisense, or antisense cocktail (10 μg/mL) in incubation buffer for 24 h. […] Fluorescence was detected with Zeiss Axiovert 40 CFL fluorescent microscope (Carl Zeiss, Inc., Thornwood, N.Y.). Images were obtained from 5-6 microvessels in each group and mean fluorescent intensity was quantified using Image J analysis software (National Institute of Health, USA).

LRP-1 [3] = molecular target: T1, LRP-1; assay: Brain efflux of I-Aβ42 after acute icv antisense; assay type: in vivo; conditions: 24 h after icv antisense, compared to saline
Text: In vivo brain-to-blood efflux rate of icv antisense: A standard method was used to quantify brain-to-blood efflux rates (Banks et al., Neuroscience 121, 487-492, 2003; Jaeger et al., Proc Natl Acad Sci USA 102, 12495-12500, 2005). First, mice were anesthetized with an i.p. injection of 40% urethane. After the scalp was removed, a hole was made through the cranium (1.0 mm lateral and 0.5 mm posterior to bregma) with a 26-gauge needle. All of the needle except 2.5 to 3.0 mm of the tip was covered by PE-10 tubing. […] Injections were made into the lateral ventricle (icv) with a 1.0 μl Hamilton syringe.
For studies in which the -Slope is reported, this value was determined from a graph created with two time points (0 and 10 min) as described above. After the log of the mean % of the injected dose of radioactivity (amount detected/amount injected*100=% Inj Dose) in each brain was plotted against time (min), linear regression was used to create a line between the multiple values at these two points.
In some experiments, mice received two icv injections (antisense cocktail or saline icv and, at t=30 min or t=24 h, icv I-Aβ42). In these cases, the dose of antisense given was 200 ng/μl LR-BSA and the dose of I-Aβ42 given was 5×10^3 cpm/μl LR-BSA.
In the specificity experiment, mice received two icv injections. […]

beta-F1 ATPase = molecular target: T2, beta-F1 ATPase (Mus musculus, UniProt P56480); assay: Brain perfusion uptake of I-PACAP27/I-PACAP38 after iv antisense; assay type: in vivo; conditions: single tail vein injection 24 h before study, 10 μg/mouse
T2 construct: from tissue; host or cells: brain / blood-brain barrier of living mice (CD-1; SAMP8 in the T-maze study)
T2 sequence (P56480 47-529): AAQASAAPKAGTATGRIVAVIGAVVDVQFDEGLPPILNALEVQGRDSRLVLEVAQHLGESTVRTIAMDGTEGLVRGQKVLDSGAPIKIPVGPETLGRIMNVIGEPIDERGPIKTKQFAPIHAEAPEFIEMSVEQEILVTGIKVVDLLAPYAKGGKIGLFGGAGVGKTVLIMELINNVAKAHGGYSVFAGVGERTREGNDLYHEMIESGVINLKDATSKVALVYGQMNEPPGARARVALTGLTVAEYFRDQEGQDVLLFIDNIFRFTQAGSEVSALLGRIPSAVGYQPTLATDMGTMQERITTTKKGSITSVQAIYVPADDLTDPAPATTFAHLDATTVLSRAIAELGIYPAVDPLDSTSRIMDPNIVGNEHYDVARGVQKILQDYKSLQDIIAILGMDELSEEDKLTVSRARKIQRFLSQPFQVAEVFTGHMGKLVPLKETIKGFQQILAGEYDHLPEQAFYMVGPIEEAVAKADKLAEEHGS
Method: To test the effectiveness of PTS-6 antisenses after their intravenous administration, two month old male CD-1 mice kept on a 12/12 hour light/dark cycle with food and water freely available were given an injection by tail vein of 0.9% saline with or without 10 μg/mouse of each of the three antisenses. To determine the specificity of the PTS-6 antisense on I-PACAP27 efflux, three other antisenses were also injected iv. These were:
After 24 h, the mice were anesthetized with urethane and both jugular veins exposed. The thorax was opened, the descending thoracic aorta clamped, both jugular veins severed, and lactated Ringer's solution containing I-PACAP27 (250,000 cpm/ml) perfused through the left ventricle of the heart at the rate of 2 ml/min. ^131I-PACAP38 (hereafter referred to as I-PACAP38) was perfused in some mice treated with PTS-6 antisense. After 5 min, the perfusion was stopped and 20 ml of lactated Ringer's solution was infused through the left ventricle of the heart to wash out the vascular space of the brain. The level of radioactivity was determined in the brain and in an aliquot of the perfusion fluid and results expressed as the brain/perfusion ratio in units of μl/g.

P-glycoprotein = conditions: intracranial introduction, rat; cited from earlier work
LRP-1 [4] = molecular target: T1, LRP-1; assay: Abluminal-to-luminal transport of I-Aβ42 in primary BMEC monolayers; assay type: cell-based; conditions: 1 μg/mL unlabeled Aβ42 in abluminal chamber
Method: Isolation of mouse brain microvascular endothelial cells (BMECs): BMECs were isolated using a modified method of Szabó et al. (Neurobiology 5, 1-16 (1997). In brief, cerebral cortices from 8-week-old CD-1 mice were isolated, cleaned of meninges, and minced. The homogenate was digested with collagenase type II (1 mg/mL) and DNase I (30 U/mL) in Dulbecco's Modified Eagle Media (DMEM) [containing 100 units/mL penicillin, 100 μg/mL streptomycin, 50 μg/mL gentamicin and 2 mM GlutaMAX-I (Invitrogen, Carlsbad, Calif.)] at 37° C. for 40 min. After digestion, 20% bovine serum albumin (BSA) dissolved in DMEM was added. The sample was then centrifuged at 1,000×g for 20 min, the supernatant containing the neurons and glial cells was removed, and the pellet containing the microvessels further digested at 37° C. for 30 min with collagenase/dispase at a concentration of 1 mg/mL (Roche, Mannheim, Germany) and DNase I (30 U/mL dissolved in DMEM). After the second enzyme digestion, we then layered the pellet on a 33% Percoll (Amersham Biosciences, Piscataway, N.J.) gradient and centrifuged at 1,000×g for 10 min to separate the microvessels. To create the Percoll gradient, 33% Percoll solution (8 mL Percoll, 14.4 mL phosphate buffered saline; PBS, 0.8 mL plasma derived serum; PDS, and 0.8 mL 10×PBS) was centrifuged at 20,300×g for 1 h, prior to this step. […]

Substance | brain efflux of I-Aβ42 (specificity experiment) (LRP-1 [3]) | uptake of I-PACAP27 delivered by brain perfusion (beta-F1 ATPase) | also measured
5′-(_P═S)GAGAAGGTTGTGTGATCTTCA (antisense dG*dA*dG*dA*dA*dG*dG*dT*dT*dG*dT*dG*dT*dG*dA*dT*dC*dT*dT*dC*dA; listed as Mus musculus) [random antisense] |  |  | time spent investigating the novel object (LRP-1 [1]): spent a majority of their time investigating the new object; mean fluorescent intensity (LRP-1 immunofluorescence) (LRP-1 [2]): 111.14%
5′-(_P═S)GGCGCCTTTGTTCGAACCCACATCTTCAGCAAAGAACACCAG-3′ (antisense dG*dG*dC*dG*dC*dC*dT*dT*dT*dG*dT*dT*dC*dG*dA*dA*dC*dC*dC*dA*dC*dA*dT*dC*dT*dT*dC*dA*dG*dC*dA*dA*dA*dG*dA*dA*dC*dA*dC*dC*dA*dG; listed as Mus musculus) | significant increase | no statistically significant effect | 
5′-(_P═S)TCATGAAGCC-3′ (antisense dT*dC*dA*dT*dG*dA*dA*dG*dC*dC; listed as Mus musculus) | significant increase | no statistically significant effect | 
5′-GGACTAAATGCTTTCCTTTGTGACAG-3′ (listed as DNA, chemistry not given here; listed as Rattus norvegicus) [SEQ ID NO 16] |  |  | P-glycoprotein expression in the brain (P-glycoprotein): reduction of the rat P-glycoprotein expression
Aβ42: 42 amino acid murine amyloid beta (DAEFGHDSGFEVRHQKLVFFAEDVGSNKGAIIGLMVGGVVIA; Amyloid-beta protein 42; UniProt P12023 672-713, looked up) |  |  | abluminal-to-luminal transport of I-Aβ42 (saturability) (LRP-1 [4]): significantly (p<0.01) inhibited
